Data published in patent US20090215727A1, “INHIBITION OF ATP-MEDIATED, P2X7 DEPENDENT PATHWAYS BY PYRIDOXAL-5-PHOSPHATE AND VITAMIN B6 RELATED COMPOUNDS” (MEDICURE INTERNATIONAL INC., priority 2005, published 2009).
“Also recorded” adds a separate entry of the source.

Assays:
[1] = system: IL-1β processing and release from PMA/LPS stimulated THP-1 cells; test: ATP-induced processing and release of IL-1β from PMA/LPS stimulated THP-1 cells (human IL-1β ELISA); type: cell-based; conditions: 5 mM ATP for one hour; for effect on ATP-induced processing and release of IL-1β: test compound 0.5-150 μM, 30 min pretreatment, IL-1β in media by ELISA
Protocol: THP-1 non-adherent, monocytic cells (ATCC) were pre-treated with phorbol-12-myristate-13-acetate (PMA), which differentiated the cells into macrophage-like cells. Briefly, approximately 8×10^6 THP-1 cells were harvested, pelleted, resuspended in media to which PMA was added at a final concentration of 0.5 μM. The cells were incubated for 3 hours, then collected, washed, and plated.
The next day, the cells were treated with lipopolysaccharide (LPS) to stimulate IL-1β production. Briefly, the media was removed and replaced with RPI media+10% fetal calf serum containing 100 ng/ml of LPS. Cells were incubated for an additional 24 hours.
Cells were pretreated for 30 minutes, then the media was replaced with media containing 5 mM ATP as well as the test compound. Cells were exposed to ATP for one hour. Media was then collected and the amount of IL-1β in the media was determined using a human IL-1β ELISA (R&D Systems).
Results were expressed as the mean±sem. Statistical analysis was performed using […] (Medistats). […] IL-1β levels were measured in the cell culture media by ELISA and the results are expressed as a percent of the untreated (baseline) controls.

HEK 293 cells = test: MTT cell viability assay in parent HEK 293 cells; type: cell-based
Protocol: (§1) Parent (HEK 293) cells, and HEK 293 cells expressing rat P2X7 (HEK 293 P2X7 (rat) cells) were treated with ATP (Sigma, A9062) to determine the effects of ATP on the viability of the cells. Cell viability was determined using an MTT assay (Wen, 2003). Cells were treated with between 0 and 2 μM of ATP. MTT was added to the cell cultures 180 minutes after ATP treatment. The MTT assay was performed 60 minutes after the addition of MTT. Cell viability was directly correlatable to the absorbance of 550 nm light by the cell culture, with a higher absorbance meaning higher cell viability. The cell culture media was removed and the cells were solubilized using DMSO. The absorbance of the solubilized cells was read.
(§2) HEK 293 and HEK 293 P2X7 (rat) cells were treated with 0 to 50 μM of P5P, a vitamin B6 related compound, in sodium salt form (Chemistry Department, CanAm Bioresearch Inc.). Thirty minutes later, cells were treated with 0.4 μM ATP, to determine the effects of ATP on the viability of the MC-1 treated cells. Control cells received sham treatment of P5P, and sham treatment of ATP.
Cell viability was determined using an MTT assay. MTT was added to the cell cultures 180 minutes after ATP treatment. […] Cell viability was directly correlatable to the absorbance of 550 nm light by the cell culture, with a higher absorbance meaning higher cell viability.

rat P2X7 receptor = target: T1, rat P2X7 receptor (Rattus norvegicus, UniProt Q64663); test: MTT cell viability assay in HEK 293 cells stably expressing rat P2X7 (ATP-mediated, P2X7-dependent cell death); type: cell-based; conditions: HEK 293 P2X7 (rat) cells
T1 construct: expressed in transfected cells; host or cells: HEK 293
T1 sequence (Q64663 1-595): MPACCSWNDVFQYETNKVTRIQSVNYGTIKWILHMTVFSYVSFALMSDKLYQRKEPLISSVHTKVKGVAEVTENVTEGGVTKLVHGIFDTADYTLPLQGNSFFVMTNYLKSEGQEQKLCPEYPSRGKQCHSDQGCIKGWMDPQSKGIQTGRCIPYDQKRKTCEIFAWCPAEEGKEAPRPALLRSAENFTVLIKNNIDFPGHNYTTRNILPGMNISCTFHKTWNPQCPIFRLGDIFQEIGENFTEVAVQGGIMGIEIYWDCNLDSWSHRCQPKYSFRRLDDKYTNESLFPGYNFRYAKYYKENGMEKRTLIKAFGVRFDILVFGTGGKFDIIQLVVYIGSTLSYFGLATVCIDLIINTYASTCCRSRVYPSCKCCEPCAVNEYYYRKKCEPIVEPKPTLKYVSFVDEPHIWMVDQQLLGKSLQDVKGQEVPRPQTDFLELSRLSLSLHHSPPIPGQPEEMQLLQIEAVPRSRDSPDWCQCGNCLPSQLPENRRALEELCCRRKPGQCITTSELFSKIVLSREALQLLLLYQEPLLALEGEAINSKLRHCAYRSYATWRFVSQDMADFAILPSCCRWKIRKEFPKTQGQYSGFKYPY
Protocol: HEK 293 cells were stably transfected to express rat P2X7 receptor, using standard tissue culture techniques (Surprenant et al, 1996). The cell line was known to not express any of the other P2X receptors (Schachter et al, 1997). Stable expression of P2X7 was confirmed by Western blot (results not shown).
as §1, §2
Cell viability was determined using an MTT assay. MTT was added to the cell cultures 180 minutes after ATP treatment. The MTT assay was performed 60 minutes after the addition of MTT. Cell viability was directly correlatable to the absorbance of 550 nm light by the cell culture, with a higher absorbance meaning higher cell viability.

IL-1β = test: Cytokine response of lipopolysaccharide treated rats (plasma IL-1β); type: in vivo, Sprague-Dawley rats; conditions: blood at 240 min, example in present tense
Protocol: Sprague-Dawley rats weighing approximately 300 g are treated with 1, 3, or 10 mg/kg P5P (or a saline control). Thirty minutes later (t=30), the animals are given a 50 μg/kg intraperitoneal injection of LPS (or a saline control). Temperature of the animals is measured, and a blood sample is collected at 240 minutes post-treatment (t=240).
Blood samples are transferred to heparinized tubes and plasma is separated by centrifugation. Plasma is assayed for IL-1β, [IL-6 and TNF-α].

P2X7 receptors = target: T2, P2X7 receptors (Rattus norvegicus, UniProt Q64663); test: BzATP-mediated, P2X7-dependent cell death (Examples 1-2 repeated with BzATP); type: cell-based; conditions: BzATP substituted for ATP; example in present tense
T2 construct: expressed in transfected cells; host or cells: HEK 293
T2 sequence (Q64663 1-595): T1 sequence (Q64663 1-595)
Description: Examples 1-2 are repeated, substituting BzATP for ATP. BzATP is known to be a specific agonist of P2X7 receptors. This Example yields results consistent with Examples 1-4, further establishing that the pathway utilized is a P2X7 dependent pathway.

## Nc1ncnc2c1ncn2[C@@H]1O[C@H](COP(=O)(O)OP(=O)(O)OP(=O)(O)O)[C@@H](O)[C@H]1O [ATP, adenosine triphosphate]
[1]; PMA/LPS primed THP-1 cells, versus untreated baseline
  processing and release of IL-1β into the culture media: significant increase
HEK 293 cells; parent HEK 293 cells, up to 2 μM ATP, MTT added 180 min after ATP
  cell viability (MTT, absorbance at 550 nm): did not significantly affect
Rat P2X7 receptor; 0 to 2 μM ATP tested
  ATP concentration from which significant loss in cell viability starts (MTT): ≥ 0.4 µM

## Cc1ncc(COP(=O)(O)O)c(C=O)c1O [P5P, pyridoxal-5′-phosphate]
[1]
  effect on ATP-induced processing and release of IL-1β: uniquely effective; also recorded: significantly inhibited
IL-1β; rats, 1, 3 or 10 mg/kg P5P 30 min before 50 μg/kg i.p. LPS
  processing and release of IL-1β in vivo (plasma): significantly inhibits
P2X7 receptors
  protection from BzATP-mediated, P2X7-dependent cell death: Protects Cells
HEK 293 cells; HEK 293 cells, 0 to 50 μM P5P 30 min before 0.4 μM ATP
  cell viability (MTT) after P5P pretreatment and ATP: did not have any significant effect
Rat P2X7 receptor; 50 μM P5P half an hour before 0.4 μM ATP
  cell viability (MTT) of ATP treated cells after P5P pretreatment: significantly improved
Rat P2X7 receptor; 50 μM P5P, 0.4 μM ATP, control = sham P5P and sham ATP
  viability of P5P pretreated, ATP treated cells compared with control cells: no significant difference
Rat P2X7 receptor; 1.5 to 15 μM P5P 30 min before 0.4 μM ATP
  cell viability (MTT) of ATP treated cells after P5P pretreatment: did not significantly affect

## Cc1ncc(CO)c(C=O)c1O [pyridoxal]
[1]
  effect on ATP-induced processing and release of IL-1β: not effective; also recorded: no significant effect

## Cc1ncc(CO)c(CN)c1O [pyridoxamine]
[1]
  effect on ATP-induced processing and release of IL-1β: not effective; also recorded: no significant effect

## Cc1ncc(CO)c(CO)c1O [pyridoxine]
[1]
  effect on ATP-induced processing and release of IL-1β: not effective; also recorded: no significant effect

## lipopolysaccharide [LPS]
IL-1β; rats, 50 μg/kg intraperitoneal LPS
  processing and release of IL-1β [IL-6 and TNF-α] into the plasma: significant increase

## pyridoxamine phosphate
[1]
  effect on ATP-induced processing and release of IL-1β: not effective; also recorded: no significant effect
